pIC50: −log10 of the molar value.
Key:
[1] = target: Cyclin D1 and cyclin-dependent kinase 4 (CDK4) (Homo sapiens, UniProt P11802); test: CDK4 substrate phosphorylation assay (phosphorylation of GST-Rb protein, [33P]-ATP); format: biochemical; conditions: read-out: CDK4 inhibition
Protocol: The compounds of the present invention have valuable pharmacologic properties. Different compounds from this class are particularly effective at inhibiting CDK2 and/or CDK4 enzymes at concentrations, which range from 0.0001 to 1 μM and additionally show specificity relative to other kinases. Substrate phosphorylation assays were carried out as follows.
Cyclin D1 and cyclin-dependent kinase 4 were expressed utilizing a baculovirus expression system. The catalytic activity of CDK4 protein was assayed by measuring the phosphorylation of Rb protein. A truncated Rb protein (residues 773-928 of the native retinoblastoma protein, fused to glutathione S-transferase to facilitate purification) was used as the phosphoryl acceptor. The assay conditions were 100 mM HEPES (N-[2-hydroxyethyl]piperzine-N′-[2-ethanesulfonic acid]), pH 7.5, 0.5 μM GST-Rb protein, 1 μCi/mL [^33P]-ATP (1 nM-20 μM), 5-20 mM MgCl2, 2.5 mM EDTA, 1 mM dithiothreitol, 0.2 mg/mL bovine serum albumin, 2% (v/v) dimethyl sulfoxide (DMSO), CDK4 enzyme (5-50 nM) in a final volume of 50 μL Reactions were incubated for time periods of 10-60 min at 30° C. and terminated by the addition of 50 μL quench (1 mM ATP/100 mM EDTA, pH 7.0). Detection of protein phosphorylation was accomplished by scintillation counting following collection of protein in 96 well plates coated with Glutathione or trapping of protein onto phosphocellulose filters. Counts detected by these methodologies minus the appropriate background were assumed to be proportional to the reaction initial rates. […] IC50s were determined by a least squares fit to the equation CPM=Vmax*(1-([I]/(K+[I])))+nsb, or pIC50s were determined by a fit to the equation CPM=nsb+(Vmax−nsb)/(1+(x/10^x−pIC50)), where nsb are the background counts.

CDK2 = CDK2 (Homo sapiens, UniProt P24941); test: CDK2 substrate phosphorylation assay (biotinylated peptide, [g-32P]ATP); format: biochemical; conditions: read-out: CDK2 inhibition
[2] = tested on: chemotherapy-induced alopecia; test: Neonatal rat model of chemotherapy-induced alopecia; format: in vivo, Sprague Dawley rats; conditions: compounds in 100% DMSO applied topically to the scalp prior to chemotherapy; scored at day 21
Text: Animal Model for Chemoprotection
Neonatal rat model of chemotherapy-induced alopecia: Time-pregnant female Sprague Dawley rats were purchased from Charles River Breeding Laboratories. Rat pups born on the same day were randomized at birth to 15 or 16 pups/mom/cage and were housed with moms during the study period. Each experimental group consisted of either 5 or 8 rats. For the etoposide model of CIA, rat pups received etoposide (VePesid, Bristol Laboratories Oncology Products, Princeton, N.J.) 6 mg/kg, ip, at 13 days of age (23). […] Compounds were formulated in 100% DMSO and applied topically to the scalp, 50 μL per application. Pups were treated with two topical applications of compounds 10 hours and 4 hours (t=−10, −4 hours) on both days 12 and 13 prior to chemotherapy administration. Pups were separated from mom during the topical application dosing period to prevent grooming and removal of compound. […] Inhibitor efficacy data was analyzed by comparing the % of drug-treated responders and the % of vehicle-treated responders. The amount of hair present on rat scalp at day 21 were scored and averaged for each inhibitor treated rat and ranked as +, ++ and +++.

Chain of Cyclin D1 and cyclin-dependent kinase 4 (CDK4) (P11802 whole entry, species assumed): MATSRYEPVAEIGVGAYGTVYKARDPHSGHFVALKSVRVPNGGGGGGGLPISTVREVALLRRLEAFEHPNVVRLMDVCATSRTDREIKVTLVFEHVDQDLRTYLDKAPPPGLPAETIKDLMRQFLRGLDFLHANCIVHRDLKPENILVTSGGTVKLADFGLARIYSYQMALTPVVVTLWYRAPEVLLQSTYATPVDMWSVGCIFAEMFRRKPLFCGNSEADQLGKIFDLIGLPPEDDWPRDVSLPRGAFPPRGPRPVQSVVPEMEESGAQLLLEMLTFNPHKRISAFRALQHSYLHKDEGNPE
Chain of Cyclin D1 and cyclin-dependent kinase 4 (CDK4) (P24385 whole entry partner, species assumed): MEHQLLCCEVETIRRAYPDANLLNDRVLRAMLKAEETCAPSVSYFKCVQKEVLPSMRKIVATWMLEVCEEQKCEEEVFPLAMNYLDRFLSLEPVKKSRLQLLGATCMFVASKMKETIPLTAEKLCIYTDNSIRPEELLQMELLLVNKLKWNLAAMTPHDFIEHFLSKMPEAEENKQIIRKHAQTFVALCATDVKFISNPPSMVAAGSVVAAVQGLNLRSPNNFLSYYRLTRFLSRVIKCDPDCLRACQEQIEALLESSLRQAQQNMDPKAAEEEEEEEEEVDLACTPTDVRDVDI

pIC50 [1] | pIC50 (CDK2) | SMILES | Rank (amount of hair present on rat scalp at day 21) [2]
> 7.00 |  | c1cnn2ncc(-c3ccnc(NC4CC4)n3)c2c1 [Example 1, N-Cyclopropyl-4-pyrazolo[1,5-b]pyridazin-3-yl-2-pyrimidinamine] | 
> 7.00 | > 7.00 | Clc1ccc(Nc2nccc(-c3cnn4ncccc34)n2)cc1 [Example 5, N-(4-Chlorophenyl)pyrazolo[1,5-b]pyridazin-3-yl-2-pyrimidinamine] | 
> 7.00 | > 7.00 | O=[N+]([O-])c1cccc(Nc2nccc(-c3cnn4ncccc34)n2)c1 [Example 10, N-(3-Nitrophenyl)-4-pyrazolo[1,5-b]pyridazin-3-yl-2-pyrimidinamine] | 
> 7.00 | > 7.00 | c1cc(Nc2nccc(-c3cnn4ncccc34)n2)cc(-c2cnco2)c1 [Example 14, N-[3-(1,3-Oxazol-5-yl)phenyl]-4-pyrazolo[1,5-b]pyridazin-3-yl-2-pyrimidinamine] | +
> 7.00 | > 7.00 | O=C1CCCN1CCCNc1nccc(-c2cnn3ncccc23)n1 [Example 22, 1-{3-[(Pyrazolo[1,5-b]pyridazin-3-yl-2-pyrimidinyl)amino]propyl}-2-pyrrolidinone] | 
> 7.00 | > 7.00 | CN1CCN(c2ccc(Nc3nccc(-c4cnn5ncccc45)n3)cc2Cl)CC1 [Example 23, N-[3-Chloro-4-(4-methyl-1-piperazinyl)phenyl]-4-pyrazolo[1,5-b]pyridazin-3-yl-2-pyrimidinamine] | +++
> 7.00 | > 7.00 | Cc1cc(Nc2nccc(-c3cnn4ncccc34)n2)ccc1N1CCN(C)CC1 [Example 25, N-[3-Methyl-4-(4-methyl-1-piperazinyl)phenyl]-4-pyrazolo[1,5-b]pyridazin-3-yl-2-pyrimidinamine] | 
> 6.00 | > 6.00 | COc1ccc2c(-c3ccnc(NC4CC4)n3)cnn2n1 [Example 36, N-Cyclopropyl-4-(6-methoxypyrazolo[1,5-b]pyridazin-3-yl)-2-pyrimidinamine] | 
> 6.00 | > 6.00 | Clc1ccccc1-c1ccc2c(-c3ccnc(NC4CC4)n3)cnn2n1 [Example 42, 4-[6-(2-Chlorophenyl)pyrazolo[1,5-b]pyridazin-3-yl]-N-cyclopropyl-2-pyrimidinamine] | 
> 7.00 | > 6.00 | CN(C)c1ccc(Nc2nccc(-c3cnn4nc(N5CCOCC5)ccc34)n2)cc1 [Example 53, N-^1-N^1-Dimethly-N^4-{4-[6-(4-morpholinyl)pyrazolo[1,5-b]pyridazin-3-yl]-2-pyrimidinyl}-1,4-benzenediamine] | 
 |  | COc1cc(Nc2nccc(-c3cnn4ncccc34)n2)cc(C(F)(F)F)c1 [Example 57] | +
 | > 7.00 | NS(=O)(=O)c1ccc(Nc2nccc(-c3cnn4ncccc34)n2)cc1 [Example 62, N-(4-aminosulfonylphenyl)-4-pyrazolo[1,5-b]pyridazin-3-yl-2-pyrimidinamine] | 

SMILES | pIC50 [1] | pIC50 (CDK2) | Rank (amount of hair present on rat scalp at day 21) [2]
N#Cc1cccc(Nc2nccc(-c3cnn4ncccc34)n2)c1 [Example 7, 3-[(4-Pyrazolo[1,5-b]pyridazin-3-yl-2-pyrimidinyl)amino]benzonitrile] | > 7.00 | > 7.00 | +++
FC(F)(F)c1cccc(Nc2nccc(-c3cnn4ncccc34)n2)c1 [Example 9, 4-Pyrazolo[1,5-b]pyridazin-3-yl-N-[3-(trifluoromethyl)phenyl]-2-pyrimidinamine] | > 7.00 | > 7.00 | ++
